Like-named read-outs stand apart in the source and are kept apart here.
Target: T1, fatty acid amide hydrolase (FAAH) (Homo sapiens, UniProt O00519)
T1 sequence (O00519 1-579): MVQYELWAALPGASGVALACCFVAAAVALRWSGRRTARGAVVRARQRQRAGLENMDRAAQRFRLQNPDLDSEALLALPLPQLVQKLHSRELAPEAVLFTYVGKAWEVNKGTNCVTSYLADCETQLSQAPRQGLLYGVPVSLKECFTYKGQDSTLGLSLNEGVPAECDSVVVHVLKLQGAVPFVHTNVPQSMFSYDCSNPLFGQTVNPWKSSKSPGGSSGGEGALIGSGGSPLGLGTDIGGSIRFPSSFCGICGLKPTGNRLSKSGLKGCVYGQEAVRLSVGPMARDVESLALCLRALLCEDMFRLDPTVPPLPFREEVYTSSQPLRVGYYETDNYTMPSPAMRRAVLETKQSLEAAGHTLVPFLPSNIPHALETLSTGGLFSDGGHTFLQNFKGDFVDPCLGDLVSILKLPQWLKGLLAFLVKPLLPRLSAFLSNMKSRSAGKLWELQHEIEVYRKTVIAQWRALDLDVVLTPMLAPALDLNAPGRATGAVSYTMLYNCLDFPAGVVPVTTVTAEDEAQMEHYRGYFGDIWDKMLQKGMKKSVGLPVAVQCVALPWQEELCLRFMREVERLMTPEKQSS
Experiment: biochemical

**Q.** With COc1ccc(-c2coc3cc(O)cc(O)c3c2=O)cc1 [biochanin-A] as the compound, how does the IC50 (read-out: IC50) read?
**A.** The IC50 was 2100 ± 240 nM.

**Q.** Which IC50 (read-out: IC50) does the source give for O=c1c(-c2ccc(O)cc2)coc2cc(O)cc(O)c12 [genistein] here?
**A.** The IC50 was 1300 ± 130 nM.

**Q.** With CCCCC/C=C\C/C=C\C/C=C\C/C=C\CCCC(=O)NCCc1c[nH]c2ccc(O)cc12 [arch-5HT] as the compound, how does the IC50 read?
**A.** Its IC50 is 1040 ± 130 nM.

**Q.** Which IC50 does the source give for O=c1cc(-c2ccccc2)oc2cc(O)ccc12 [7-hydroxyflavone] here?
**A.** Its IC50 is 2040 ± 190 nM.
